# Assay results taken from paper PMC7038073, “Substituted Piperazines as Novel Potential Radioprotective Agents” (Molecules, 2020).
# “Also recorded” adds a separate entry of the source. Counter-ions that a name gives are not always drawn.
# Assays:
# [1] = tested on: 10 human cell lines (nine cancer and one non-cancer cell line); assay: WST-1 cytotoxicity test, statements over all cell lines; type: cell-based; conditions: 100 µM, 48 h, studied cell lines
# Description: (§1) In this study, the cytotoxic effects of nine new compounds (2, 3, 4, 5, 6, 7, 8, 9, 10) were tested on 10 human cell lines (nine cancer and one non-cancer cell line). The cell lines were treated with each compound at concentrations of 10 µM and 100 µM for 48 h. The proliferation capacity of the treated cells was determined by WST-1 test and compared against the proliferation rate of the untreated control cells (100%).
# (§2) The cell lines Jurkat, MOLT-4, A2780, A549, HT-29, PANC-1, HeLa, MCF-7, SAOS-2, and MRC-5 (all purchased from Sigma Aldrich, Czech Republic) were included in this study. All cell lines were maintained according to the provider’s guidelines, and plated and treated in 96-well plates (500 to 30 × 10^3 cells per well). The tested compounds 2, 3, 4, 5, 6, 7, 8, 9, and 10 were dissolved in 0.1% DMSO and kept in 10 mM stock solutions. Before use, the stock solution was diluted in culture media at ratios of 1:100 and 1:1000. The studied cell lines were treated with the compounds 2, 3, 4, 5, 6, 7, 8, 9, and 10 at concentrations of 10 and 100 µM for 48 h. Control cells were tested in culture media with and without DMSO (0.1%). The cells were also treated with 1 µM doxorubicin as a cytotoxicity control.
# (§3) The WST-1 (2-(4-iodophenyl)-3-(4-nitrophenyl)-5-(2,4-disulfophenyl)-2H-tetrazolium, monosodium salt) test (Roche, Mannheim, Germany) was used according to the manufacturer’s protocol to determine cell viability in all 10 cell lines 48 h after treatment with the tested compounds. The cells were analyzed in a Tecan Infinite M200 spectrometer (Tecan Group, Männedorf, Switzerland) at 440 nm.
# [2] = WST-1 cytotoxicity test, MRC-5; type: cell-based; conditions: human, MRC-5 cells, 48 h, WST-1, mean ± SD of three experiments, read-out: relative viability (%) compared to untreated control; for viability at 48 h, 10 µM: MRC-5, 10 µM; for viability at 48 h, 100 µM: MRC-5, 100 µM
# Description: as §1, §2, §3
# MOLT-4 cells = assay: Radioprotection in vitro, Annexin V/PI flow cytometry after irradiation; type: cell-based, human; conditions: 60-min pre-treatment, 1 Gy; for viability at 100 µM: Homo sapiens, MOLT-4, light or radiation study, 24 h following irradiation, irradiated untreated 40%, non-irradiated control 92%, read-out: percentage of viable MOLT-4 cells (Annexin V and PI negative) after irradiation; for radioprotective effect in vitro (in words): 100 μM, MOLT-4
# Excerpt: Phosphatidylserine, a major component of the inner leaflet of the cytoplasmic membrane bilayers, is frequently used as an indicator of cell death. The externalization of this phospholipid can be detected through Annexin V, which binds to phosphatidylserine in the presence of calcium. Cell viability was quantified by Annexin V-Alexa Fluor® 488/propidium iodide (PI) staining and flow cytometry analysis to determine whether the tested compounds could prevent radiation-induced cell death in MOLT-4 cells. The percentage of viable cells was 92% for non-irradiated control (0.1% DMSO vehicle) and 40% for untreated irradiated cells (1 Gy) (Figure 2A).
# Fresh 50 mM stock solutions of the compounds were prepared in DMSO (Sigma-Aldrich, St. Louis, MO, USA) before use in the study. For the radioprotection experiments, MOLT-4 cells were treated with 100 μM solutions of the novel compounds and irradiated after 60 min with a ^60Co γ-ray source (Chisotron Chirana, Prague, Czech Republic). The non-irradiated and irradiated control cells were treated with DMSO vehicle only (0.1%) and handled in parallel with the experimental cells. Non-irradiated control cells were handled in the same manner. Cell viability was determined by flow cytometry using an Alexa Fluor® 488 Annexin V/Dead Cell Apoptosis kit (Life Technologies, Grand Island, NY, USA) according to the manufacturer’s instructions. The Alexa Fluor® 488 Annexin V/Dead Cell Apoptosis kit employs the property of Alexa Fluor® 488 conjugated to Annexin V to bind to phosphatidylserine in the presence of Ca^2+, and the property of propidium iodide (PI) to enter cells with damaged cell membranes and bind to DNA. Measurement was performed using a CyAn (Beckman Coulter, Miami, FL, USA) flow cytometer. Listmode data was analyzed with the Kaluza Analysis v1.3 software (Beckman Coulter, Miami, FL, USA).
# [3] = WST-1 cytotoxicity test, A549; type: cell-based; conditions: human, A549 cells, 48 h, WST-1, mean ± SD of three experiments, read-out: relative viability (%) compared to untreated control; for viability at 48 h, 10 µM: A549, 10 µM; for viability at 48 h, 100 µM: A549, 100 µM
# Description: as §1, §2, §3
# BALB/c mice = assay: Survival of whole-body irradiated mice; type: in vivo; conditions: female BALB/c mice; for day post-irradiation of onset of lethal effect / decline in survival: i.p. at 50% of MTD 5 min before 7.15 Gy, non-treated control 10 days; for survival at day 30 post-irradiation: n = 10, i.p. at 50% of MTD 5 min before 7.15 Gy, control 40%
# Description: To estimate the radioprotective effect on whole-body irradiated mice, compounds 4 (50 mg/kg), 5 (100 mg/kg), 6 (50 mg/kg), 7 (100 mg/kg), 8 (1000 mg/kg), and 10 (325 mg/kg) were injected (intraperitoneally, i.p.) 5 min before receiving 7.15 Gy of gamma radiation. These compounds were selected based on the cytotoxicity screening in vitro, and applied at a dose corresponding to 50% of the MTD in vivo. […] The follow-up period was 30 days.
# Adult female BALB/c mice (21 ± 0.8 g) were used for all experiments (Velaz a.s., Prague, Czech Rep.). All the performed methods were in accordance with NIRS Guidelines for the Care and Use of Laboratory Animals and approved by the Committee for animal rights of the Ministry of Defence of the Czech Republic no. ČJ MO 255172/2019-684800. The mice, arranged in groups of 10 animals each, received a dose of 7.15 Gy from a ^60Co gamma source (Chisotron, Chirana, Czech Republic) at a dose rate of 1.04 Gy/min. Non-irradiated and non-treated control groups were included. Their survival and health status were checked on a daily basis for 30 days.
# Compounds 4 (50 mg/kg), 5 (100 mg/kg), 6 (50 mg/kg), 7 (100 mg/kg), 8 (1000 mg/kg), and 10 (325 mg/kg) were selected and administered i.p. 5 min before irradiation. The doses were prepared from 100 mg/mL stock before each experiment.
# [4] = WST-1 cytotoxicity test, HeLa; type: cell-based; conditions: human, HeLa cells, 48 h, WST-1, mean ± SD of three experiments, read-out: relative viability (%) compared to untreated control
# Description: as §1, §2, §3
# Solubility (in words) = type: physicochemical
SMILES,cytotoxic effect (in words) [1],"viability at 48 h, 10 µM [2]","viability at 48 h, 100 µM [2]",viability at 100 µM (MOLT-4 cells),"viability at 48 h, 10 µM [3]","viability at 48 h, 100 µM [3]",day post-irradiation of onset of lethal effect / decline in survival (BALB/c mice),survival at day 30 post-irradiation (BALB/c mice),"viability at 48 h, 10 µM [4]","viability at 48 h, 100 µM [4]",radioprotective effect in vitro (in words) (MOLT-4 cells),solubility (in words) (Solubility (in words))
"COc1ccc(NCCCN2CCN(CCO)CC2)cc1.Cl.Cl.Cl [Compound 7, 2-(4-(3-((4-methoxyphenyl)amino)propyl)piperazin-1-yl)ethanol trihydrochloride]",no significant cytotoxic effects,100 ± 3%,104 ± 3%,64%,95 ± 5%,115%,9 days,0%,96 ± 8%,132 ± 3%,–,–
"Cl.Cl.Cl.OCCN1CCN(CCCNc2ccccc2)CC1 [Compound 5, 2-(4-(3-(phenylamino)propyl)piperazin-1-yl)ethanol trihydrochloride]",no significant cytotoxic effects,98 ± 7%,102 ± 8%,59%,86 ± 7%,104 ± 8%,10 days,30%,100 ± 4%,116 ± 10%,did not show statistically significant radioprotective effect,–
"Cc1cc(OCC(O)CN2CCN(CCO)CC2)ccc1Cl.Cl.Cl (stereo not drawn) [Compound 4, 1-(4-chloro-3-methylphenoxy)-3-(4-(2-hydroxyethyl)piperazin-1-yl)propan-2-ol dihydrochloride]",no significant cytotoxic effects,97 ± 8%,93 ± 5%,61%,100 ± 4%,99%,> 12 days,50%,106 ± 2%,137 ± 5%,–,–
"Cl.Cl.OC(CNc1ccccc1)CNc1ccccc1 [Compound 9, 1,3-bis(phenylamino)propan-2-ol dihydrochloride]",no significant cytotoxic effects,102 ± 8%,120 ± 16%,34%,107 ± 11%,98 ± 13%,–,–,99 ± 9%,90 ± 14%,no significant radioprotective effect,low solubility; also recorded: insufficiently soluble for necessary concentrations
"OCCN1CCN(CC(O)CN2CCN(CCO)CC2)CC1 [Compound 8, 1.3-bis [4-(2-hydroxyethyl)piperazin-1-yl)propan-2-ol tetrahydrochloride]",no significant cytotoxic effects,95 ± 7%,119 ± 16%,57%,97 ± 5%,111 ± 11%,> 12 days,70%,103 ± 4%,100 ± 18%,–,excellently soluble in media
"Cl.Cl.Cl.OCCN1CCN(CCCNc2cccc3ccccc23)CC1 [Compound 6, 2-(4-(3-(naphthalen-1-ylamino)propyl)piperazin-1-yl)ethanol trihydrochloride]",no significant cytotoxic effects,91 ± 4%,94 ± 2%,69%,103 ± 7%,93 ± 3%,10 days,20%,108 ± 6%,104 ± 7%,–,–
"Cl.Cl.Cl.OCCN1CCN(CC(O)CNc2ccccc2)CC1 (stereo not drawn) [Compound 10, 1-(phenylamino]-3-[4-(2-hydroxyethyl)piperazin-1-yl)propan-2-ol trihydrochloride]",no significant cytotoxic effects,102 ± 3%,102 ± 8%,51%,105 ± 9%,105 ± 2%,> 12 days,30%,110 ± 7%,121 ± 3%,–,–
